Values quoted from earlier work as cited in patent US20260217749A1, “METAL COMPLEX COMPOUNDS AS PHOTOSENSITIZERS FOR PHOTODYNAMIC THERAPY” (UNIVERSITAT DE BARCELONA, priority 2023, published 2026).

System: SK-MEL-28 melanoma cells
Details: red light irradiation (625 nm)

## Cc1ccnc(-c2cc(C)ccn2)c1.Cc1ccnc(-c2cc(C)ccn2)c1.[Cl-].[Cl-].[Ru+2].c1csc(-c2ccc(-c3ccc(-c4nc5c6cccnc6c6ncccc6c5[nH]4)s3)s2)c1 [TLD-1433]
  IC50: 2300 nM
  PI value: moderate
